Source: publication PMC4425608 (Pharmaceutical research, 2014)
Entries after “also recorded” stand apart in the source; their conditions may differ. Read-outs that look alike come from different tables or passages of the source.

How the values were obtained:
[1] = rats, mean (SD), cited from earlier work
[2] = system: GHB-induced respiratory depression; conditions: rats, mean (SD), cited from earlier work
[3] = GHB blood-brain partitioning at steady state; conditions: rats; GHB 400 mg/kg i.v. bolus + 208 mg/kg/h i.v. infusion alone; 4 h; mean ± SD
[4] = Oral GHB toxicokinetics with and without AR-C155858
[5] = system: GHB uptake in KNRK cells; experiment: Inhibition of [3H]GHB uptake in KNRK cells; assay type: cell-based; conditions: rat KNRK cells
[6] = system: MCT2; conditions: expressed in Xenopus laevis oocytes; cited from earlier work
[7] = system: MCT4; conditions: expressed in Xenopus laevis oocytes; cited from earlier work
[8] = Pharmacokinetics of AR-C155858 in rats following intravenous administration; conditions: 0.1, 1, and 5 mg/kg i.v. bolus
[9] = rats, cited from earlier work
[10] = GHB 1500 mg/kg i.v. bolus alone
[11] = male, Sprague-Dawley, rat, plasma, po, 1500 mg/kg
[12] = rats, GHB 1500 mg/kg oral gavage alone, mean (SD)

O=C(O)CCCO [GHB, γ-hydroxybutyric acid]
GHB AUC ([1]; GHB 200 mg/kg i.v. bolus alone): 26.2 (0.90) mg.min/ml
GHB CLR (renal clearance) ([1]; GHB 200 mg/kg i.v. bolus alone): 0.44 (0.20) ml/min/kg
GHB CLT (total clearance) ([1]; GHB 200 mg/kg i.v. bolus alone): 7.60 (0.29) ml/min/kg
GHB urinary recovery ([1]; GHB 200 mg/kg i.v. bolus alone): 5.90 (2.86) %
GHB AUC ([1]; GHB 600 mg/kg i.v. bolus alone): 102 (12.4) mg.min/ml
GHB CLR (renal clearance) ([1]; GHB 600 mg/kg i.v. bolus alone): 1.68 (0.75) ml/min/kg
GHB urinary recovery ([1]; GHB 600 mg/kg i.v. bolus alone): 27.3 (9.77) %
GHB AUC [1, 10]: 288 (39.8) mg.min/ml
GHB CLT (total clearance) [1, 10]: 5.16 (0.70) ml/min/kg
GHB urinary recovery [1, 10]: 61.1 (5.02) %
AUEC, area under the effect curve for breathing frequency ([2]; GHB 200 mg/kg i.v. bolus alone): 2243 (1508) breaths
Emax, maximum effect on breathing frequency ([2]; GHB 200 mg/kg i.v. bolus alone): 51.9 (8.51) breaths/ min
Td, duration of effect on breathing frequency ([2]; GHB 200 mg/kg i.v. bolus alone): 113 (60.6) min
AUEC, area under the effect curve for breathing frequency ([2]; GHB 600 mg/kg i.v. bolus alone): 7987 (1228) breaths
Emax, maximum effect on breathing frequency ([2]; GHB 600 mg/kg i.v. bolus alone): 29.5 (6.94) breaths/ min
Td, duration of effect on breathing frequency ([2]; GHB 600 mg/kg i.v. bolus alone): 153 (12.5) min
AUEC, area under the effect curve for breathing frequency [2, 10]: 12505 (1995) breaths
Emax, maximum effect on breathing frequency [2, 10]: 15.6 (7.05) breaths/ min
Td, duration of effect on breathing frequency [2, 10]: 281 (72.8) min
Cbrain, brain GHB concentration at steady-state [3]: 0.22 ± 0.03 mg/g
Cplasma, plasma GHB concentration at steady-state [3]: 0.87 ± 0.05 mg/mL
CL/F [4, 11]: 6.52 mL/min/kg
Cmax [4, 11]: 659 µg/mL
CL renal ([4]; male, Sprague-Dawley, rat, urine and plasma, po, 1500 mg/kg): 1.82 mL/min/kg
GHB AUC [4, 12]: 233 (30.0) mg.min/ml
GHB urinary excretion [4, 12]: 28.2 (10.1) %

Cc1n[nH]c(C)c1Cc1sc2c(c1C(=O)N1C[C@H](O)CO1)c(=O)n(C)c(=O)n2CC(C)C [AR-C155858, 6-[(3,5-Dimethyl-1H-pyrazol-4-yl)methyl]-5-[[(4S)-4-hydroxy-2-isoxazolidinyl]carbonyl]-3-methyl-1-(2-methylpropyl)thieno[2,3-d]pyrimidine-2,4(1H,3H)-dione]
pre-incubation time giving maximal inhibition of GHB uptake ([5]; 100 nM AR-C155858, pre-incubation 0-60 min): 30 min
concentration giving maximal inhibition of GHB uptake ([5]; 30 min pre-incubation): 100 nM
reversibility of inhibition of GHB uptake after washing the cells ([5]; 30 min pre-incubation with 100 nM, washed 3 times): not to be rapidly reversible
inhibition of GHB uptake ([5]; linear trend in inhibition up to 30 nM, 30 min pre-incubation): 70%
inhibition of MCT2 [6]: potently inhibited; also recorded: can also inhibit
inhibition of MCT4 [7]: no inhibition; also recorded: does not inhibit
AR-C155858 plasma concentration-time profile [8]: biexponential decline and dose-proportional pharmacokinetics

C[C@H](O)C(=O)O [L-lactate]
effect on GHB extracellular fluid concentrations in the frontal cortex ([9]; higher doses, plasma steady state L-lactate concentrations ≈ 4–5 mM): decreased
effect on GHB extracellular fluid concentrations in the frontal cortex ([9]; lower doses, plasma steady state L-lactate concentrations ≈ 1–2 mM): no significant effect
